Measurements published in publication PMC4281356, “Uptake of the antisecretory factor peptide AF-16 in rat blood and cerebrospinal fluid and effects on elevated intracranial pressure” (Acta Neurochirurgica, 2014).
Several values for one entry are separate records, joined by “and”; a condition that tells them apart may be missing. Identical values can stand only once. Residues, ends and D or L forms follow the SMILES beside them.

Columns and labels:
[1] = AF-16 concentration in plasma after intranasal or i.v. administration (Bachem AF-16 Enzyme Immunoassay); assay type: in vivo, rat; details: for Concentration of AF-16 in plasma: experimental rats (cryogenic brain injury); for Concentration of AF-16 in plasma / level at 0.5 h: sample 30 min after dosing, enzyme immunoassay, mean ± SEM; for level at 0.5 h: male, Sprague-Dawley, rat, plasma, control (uninjured) rats
Procedure: (§1) The test protocol was approved by the Regional Animal Experiments Ethical Committee and performed in accordance with guidelines for animal experiments (EC Directive 86/609/EEC). Male Sprague–Dawley rats, 180 ± 20 g body weight (Nova-SCB, Sollentuna, Sweden) were used. The rats were allowed a week for general adaptation in their cages before any form of experimental procedure was performed. All rats had free access to water and pelleted food during the whole experimental period. The temperature and air ventilation in the animal quarters were monitored according to standard procedures.
(§2) The operation procedure started with general anaesthesia via inhalation of Isoflurane (4 % induction, 1.5–2 % maintenance in air), after which the anaesthetised rat was positioned on the abdomen on a heating pad. The body temperature was monitored via a rectal thermo-coupled probe, and a heated blanket was placed underneath the rat in order to keep the temperature at 37 °C. The head was shaved and the skin washed with 70 % alcohol, followed by a subcutaneous injection of Marcaine. A 3– to 4-cm-long midline incision was made through the skin and fascia on the skull vault. The skull bone was freed from adherent connective tissue and a copper rod (144 g) with a tip diameter of 4 mm was immersed in liquid nitrogen and then applied to the right parietal bone for 90 s. […] The resulting lesion volume was calculated after termination of the experiments (see below). Uninjured rats were used as controls.
(§3) Rats were anaesthetised with Isoflurane 24 h after the cryogenic brain injury. The rats were given a single dose of 25 μl of AF-16 (2,000 μg/ml in phosphate buffered saline, PBS) or ^14C-AF-16 in each nostril and were then placed on their backs to make sure the AF-16 solution was absorbed appropriately. After 5–8 min they had recovered from anaesthesia, were fully awake and moved freely in the cage. Control, injured rats received the same volume of vehicle (PBS) only. ICP recordings for statistical calculations were collected for a 20-min-long period, starting after the animals were fully awake and the ICP values were stable and back to pre-anaesthesia levels.
(§4) The collection of blood and CSF was done in a separate set of experiments. ^14C-Labelled or unlabelled AF-16 was given by intranasal (see above) or i.v. administration via the penis vein (25 μl in a volume of 0.5 ml). For measurement of blood concentration of AF-16 the heart was punctured from the right thoracic cavity with an O.D. 1.22/60 mm injection needle. When 10–12 ml of blood had been collected, the thorax was opened and the rats were terminated by removing the heart. Immediately after termination, the rats were placed on the abdomen. For measurement of CSF levels of AF-16 the dura over cisterna magna was micro-surgically exposed by dissecting the neck muscles laterally, a procedure which uncovers the midline. The dura was subsequently punctured by a Neoflon i.v. cannula, outer diameter 0.6 mm, length 19 mm. After removing the needle from the cannula, 50–100 μl of CSF could be aspired without being contaminated with blood.
A Bachem AF-16 Enzyme Immunoassay kit (item S-1403) was used. Heparin-treated blood samples were mixed with an equal volume of Alsevers citrate solution (glucose, 0.1 M, sodium citrate 2-hydrate, 0.03 M, sodium chloride, 0.07 M). The blood samples were stored frozen for up to 1 month at −20 °C. The laboratory procedure followed Protocol III in the Bachem kit manual, but some critical points should be emphasised. The standard AF-16 was dissolved and diluted in normal blood plasma; the standards S1-S6 (0.2–200 ng/ml, corresponding to 0.114–114 nM) and normal plasma S0 were distributed into smaller aliquots (e.g. 200 μl) and frozen at −20 °C until use. The standard is not stable in buffered saline at these concentrations. […]

[2] = AF-16 concentration in CSF after intranasal or i.v. administration (estimated from radioactivity of 14C-AF-16); assay type: in vivo, rat; details: for Concentration of AF-16 in CSF: estimated from 14C radioactivity, mean ± SEM
Procedure: as §1, §2, §3, §4
A Bachem AF-16 Enzyme Immunoassay kit (item S-1403) was used. Heparin-treated blood samples were mixed with an equal volume of Alsevers citrate solution (glucose, 0.1 M, sodium citrate 2-hydrate, 0.03 M, sodium chloride, 0.07 M). The blood samples were stored frozen for up to 1 month at −20 °C. The laboratory procedure followed Protocol III in the Bachem kit manual, but some critical points should be emphasised. […]

[3] = Side effects of AF-16 treatment in animals; assay type: in vivo; details: experimental conditions in animals
[4] = Autoradiography of 14C-AF-16 distribution in the brain after intranasal administration; assay type: in vivo, rat; details: control uninjured rats (n = 10), one intranasal dose, 30 min, 10 μm cryosections, X-ray film
Procedure: The distribution of ^14C-AF-16 in the brain after intranasal administration was investigated in a separate set of experiments. Control, uninjured rats (n = 10) received one intranasal dose of ^14C-AF-16. Thirty minutes later the rats were terminated and the brains were dissected out as described above. Frontal slices were cut, about 3 mm thick, immersed in 10 % sucrose in PBS overnight and then frozen in liquid nitrogen. Cryosections, cut at 10 μm, were prepared, air dried and exposed to Biomax AR autoradiography film (Kodak).

Compound | Concentration of AF-16 in plasma relative to CSF ([1]; control and injured rats, 30 min after intranasal or i.v. administration) | Concentration of AF-16 in plasma ([1]; i.v. via penis vein (25 μl in 0.5 ml), n = 7) [ng/mL] | Concentration of AF-16 in plasma ([1]; intranasal (25 μl of 2,000 μg/ml in PBS in each nostril), n = 9) [ng/mL] | level at 0.5 h ([1]; inhaled or intranasal, 100 ug per rat, intranasal (25 μl of 2,000 μg/ml in PBS in each nostril), n = 9) [ng/mL] | level at 0.5 h ([1]; iv, 25 ul in a volume of 0.5 ml, i.v. via penis vein (25 μl in 0.5 ml), n = 7) [ng/mL] | Concentration of AF-16 in plasma relative to CSF ([1]; normal rats, intranasal 0.3 μmol/kg in 25 μl, 15 and 30 min after deposition) | Change of plasma level between 15 and 30 min ([1]; normal rats, intranasal 0.3 μmol/kg, p < 0.03) | Concentration of AF-16 in CSF ([2]; control (uninjured) rats, i.v., CSF from cisterna magna 30 min after dosing, n = 6) [ng/mL] | Concentration of AF-16 in CSF ([2]; control (uninjured) rats, intranasal, CSF 30 min after dosing, n = 9) | Concentration of AF-16 in CSF ([2]; experimental rats (cryogenic brain injury), i.v., CSF from cisterna magna 30 min after dosing, n = 7) [ng/mL] | Concentration of AF-16 in CSF ([2]; experimental rats (cryogenic brain injury), intranasal, CSF 30 min after dosing, n = 9, p = 0.01 vs control) | Decrease of AF-16 in CSF between 15 and 30 min ([2]; normal rats, intranasal 0.3 μmol/kg) | Side effects of treatment [3] | Distribution in the brain by autoradiography [4]
CC(C)C[C@H](NC(=O)CNC(=O)[C@@H](NC(=O)[C@H](CC(N)=O)NC(=O)[C@H](CC(N)=O)NC(=O)[C@H](CCC(=O)O)NC(=O)[C@@H]1CCCN1C(=O)[C@H](CC(N)=O)NC(=O)[C@H](CO)NC(=O)[C@H](CCCNC(=N)N)NC(=O)[C@@H](NC(=O)[C@H](CCCCN)NC(=O)[C@H](CO)NC(=O)[C@H](Cc1c[nH]cn1)NC(=O)[C@H](CS)NC(=O)[C@@H](N)C(C)C)[C@@H](C)O)C(C)C)C(=O)O [AF-16] (H-VCHSKTRSNPENNVGL-OH) | about ten-times higher in plasma than in CSF | 14.5 ± 0.9 | 8.7 ± 0.5 | 7.8 ± 0.7 | 14.7 ± 0.6 | about ten-times higher in plasma than in CSF | decreased significantly | 1.1 ± 0 | 0.6 ng/mL and 0.6 ± 0.1 ng/mL | 1.1 ± 0.1 | 1.3 ng/mL and 1.3 ± 0.2 ng/mL | not statistically significant | No side effects | –
VCHSKTRSNPENNVGL [^14C-AF-16] | – | – | – | – | – | – | – | – | – | – | – | – | – | detected in the brain ventricles/choroid plexus
